# Reference: patent US20250170079A1, “COMBINATIONS OF STAT-INHIBITORS AND IMMUNE CHECKPOINT INHIBITORS FOR THE TREATMENT AND/OR MANAGEMENT OF CANCER” (Tvardi Therapeutics, Inc., priority 2022, published 2025)
# Experiments:
# [1] = tested on: subcutaneous liver cancer syngeneic model H22; assay: In vivo efficacy study of TTI-101 ± anti-PD-1 in subcutaneous liver cancer syngeneic model H22; parameters: species or system female BALB/c mice; conditions: TTI-101 1.2 mg/mouse p.o. BID*3 weeks and/or anti-PD-1 10 mg/kg i.p. BIW*3 weeks
# Source text: The objective of efficacy study was to evaluate preclinically the in vivo therapeutic efficacy of TTI-101 alone and in combination with anti-PD-1 in the treatment of subcutaneous liver cancer syngeneic model H22 in female BALB/c mice. The objective of rechallenge study was to evaluate immune memory of the female BALB/c mice previously cured from subcutaneous liver cancer syngeneic model H22 by TTI-101 combined with anti-PD-1.
# Dosing volume of Anti-PD-1 (clone RMP1-14) was adjusted for body weight. The concentration of anti-PD-1 was 1 mg/mL, and dosing volume was 10 μL/g. The anti-PD-1 dosing solution was prepared by diluting 1.372 mL of anti-PD-1 (8.2 mg/mL) with 9.878 mL of PBS.
# A composition of TTI-101 (72 mg/mL) dissolved in Kolliphor RH40, PEG600, Labrasol, Tween 20, and citric acid solution, was then dispersed in 1:2 water (vortexed) to form the dosing emulsion. The concentration of TTI-101 in the dosing emulsion was 24 mg/mL.
# The H22 tumor cells were maintained in vitro with RPMI1640 medium supplemented with 10% fetal bovine serum (FBS) at 37° C. in an atmosphere of 5% CO2 in air. The cells in exponential growth phase were harvested and quantitated by cell counter before tumor inoculation.
# In efficacy study, each mouse was inoculated subcutaneously in the right front flank region with tumor cells (1×10^6) in 0.1 ml of PBS for tumor development.
# The randomization in efficacy study started when the mean tumor size reached approximately 73 mm^3 (for groups 1-5) and 96 mm^3 (for groups 6-9). Totally 82 mice were enrolled in the study and randomly allocated to 9 study groups, with 10 mice per group (groups 1-5) and 8 mice per group (groups 6-9). Randomization was performed based on “Matched distribution” method (Study Director TM software, version 3.1.399.19). The date of randomization was denoted as Day 1.
# Test articles were given between 8 am-9 am then again between 4 pm-5 pm.
# For group 5, TTI-101 was initiated 5 days post anti-PD-1 dosing per the request.
# Tumor volumes were measured twice per week after randomization in two dimensions using a caliper, and the volume was expressed in mm^3 using the formula: V=(L×W×W)/2, where V is tumor volume, L is tumor length (the longest tumor dimension) and W is tumor width (the longest tumor dimension perpendicular to L). Dosing as well as tumor and body weight measurements were conducted in a Laminar Flow Cabinet.
# Tumor growth inhibition (TGI), T/C value and Survival was applied at the endpoint.
# Tumor regression (REG)=[(T0−Ti)/T0]×100%;
# Tumor Growth Inhibition; TGI %=(1−Ti/Ci)*100;
# Treatment/Control (T/C) value (%) is an indicator of tumor response to treatment, and one of commonly used anti-tumor activity endpoint; T and C are the mean tumor volumes of the treatment and control groups, respectively, on a given day. […]
# [2] = Bioavailability and pharmacokinetics of TTI-101 following IP or PO administration; format: in vivo, male Sprague-Dawley rats; conditions: PO 25 mg/kg vs IP 25.6 mg/kg, single dose, rats
# Protocol: Bioavailability and pharmacokinetics of TTI-101 in male Sprague-Dawley rats were evaluated following a single oral (PO) dose at 25 mg/kg (in labrasol:PEG400, 60:40% v/v) and a single intraperitoneal (IP) dose at 25.6 mg/kg (pH 7.4 PBS/propylene glycol/ethanol/DMSO, 20:70:5:5% v/v).
# [3] = Day 21, vs vehicle+isotype group
smiles,measurement,setting,value
"COc1ccc(S(=O)(=O)Nc2cc(-c3c(O)ccc4ccccc34)c(O)c3ccccc23)cc1 [TTI-101, N-(1′,2-dihydroxy-1,2′-binaphthalen-4′-yl)-4-methoxybenzenesulfonamide]",T/C (%) on Day 21,[1]; [3],78.33%
same,TGI (%) on Day 21,[1]; [3],21.67%
same,"CR Ratio (tumor complete response, tumor regressed to 0)",[1]; animals with CR / animals per group,0/10
same,Tumor volume (mm^3) (N) on Day 21,"[1]; mean ± SEM, Day 21",2073.36 mm^3
same,greater exposure by oral administration compared to interperitoneal administration,[2],90%
